Measured values published in US5972980A, “Method for treating and preventing inflammation and atherosclerosis” (Warner-Lambert Company, priority 1999, dated 1999).
Where two headings read alike, the source gives them in different places. Values belong to the compound of their own block, whether it stands above or below them.

Tests used:
[1] = molecular target: T1, rabbit reticulocyte 15-LO (Oryctolagus cuniculus, UniProt P12530); test: 15-LO inhibition, rabbit reticulocyte 15-LO with linoleic acid substrate, HPLC method of Auerbach et al.; format: biochemical
T1 construct: rabbit reticulocyte 15-LO; from tissue; host or cells: rabbit reticulocytes
T1 sequence (P12530 1-663): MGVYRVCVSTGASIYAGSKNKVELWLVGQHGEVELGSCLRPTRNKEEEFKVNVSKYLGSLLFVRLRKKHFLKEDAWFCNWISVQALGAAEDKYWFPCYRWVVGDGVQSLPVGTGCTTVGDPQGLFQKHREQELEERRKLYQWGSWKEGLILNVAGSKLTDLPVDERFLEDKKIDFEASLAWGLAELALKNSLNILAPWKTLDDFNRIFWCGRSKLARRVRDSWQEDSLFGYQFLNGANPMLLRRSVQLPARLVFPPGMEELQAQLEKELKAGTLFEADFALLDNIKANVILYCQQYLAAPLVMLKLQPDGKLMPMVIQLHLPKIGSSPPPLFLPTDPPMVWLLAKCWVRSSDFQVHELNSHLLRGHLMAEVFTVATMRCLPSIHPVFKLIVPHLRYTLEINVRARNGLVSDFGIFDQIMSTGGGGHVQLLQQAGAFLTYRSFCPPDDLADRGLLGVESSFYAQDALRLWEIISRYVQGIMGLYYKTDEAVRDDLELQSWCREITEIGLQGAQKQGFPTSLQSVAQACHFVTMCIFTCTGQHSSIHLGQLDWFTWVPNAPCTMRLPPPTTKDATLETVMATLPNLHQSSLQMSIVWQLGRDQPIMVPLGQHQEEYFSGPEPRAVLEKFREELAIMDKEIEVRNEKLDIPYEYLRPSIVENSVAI
Method: Two in vitro assays were utilized, both utilizing rabbit reticulocyte 15-LO, and linoleic acid as substrate, to enzymatically produce a peroxide oxidation product known as 13(S)-HPODE. N-Benzoyl leucomethylene blue was utilized as a calorimetric reagent for detection and quantification of the peroxide formation. Also, HPLC was utilized to quantify the oxidation following incubation at 4° C. for 10 minutes.

5-LO enzyme = molecular target: T2, 5-LO enzyme (Homo sapiens, UniProt P09917); test: 5-LO enzyme inhibition; format: biochemical
T2 sequence (P09917 1-674): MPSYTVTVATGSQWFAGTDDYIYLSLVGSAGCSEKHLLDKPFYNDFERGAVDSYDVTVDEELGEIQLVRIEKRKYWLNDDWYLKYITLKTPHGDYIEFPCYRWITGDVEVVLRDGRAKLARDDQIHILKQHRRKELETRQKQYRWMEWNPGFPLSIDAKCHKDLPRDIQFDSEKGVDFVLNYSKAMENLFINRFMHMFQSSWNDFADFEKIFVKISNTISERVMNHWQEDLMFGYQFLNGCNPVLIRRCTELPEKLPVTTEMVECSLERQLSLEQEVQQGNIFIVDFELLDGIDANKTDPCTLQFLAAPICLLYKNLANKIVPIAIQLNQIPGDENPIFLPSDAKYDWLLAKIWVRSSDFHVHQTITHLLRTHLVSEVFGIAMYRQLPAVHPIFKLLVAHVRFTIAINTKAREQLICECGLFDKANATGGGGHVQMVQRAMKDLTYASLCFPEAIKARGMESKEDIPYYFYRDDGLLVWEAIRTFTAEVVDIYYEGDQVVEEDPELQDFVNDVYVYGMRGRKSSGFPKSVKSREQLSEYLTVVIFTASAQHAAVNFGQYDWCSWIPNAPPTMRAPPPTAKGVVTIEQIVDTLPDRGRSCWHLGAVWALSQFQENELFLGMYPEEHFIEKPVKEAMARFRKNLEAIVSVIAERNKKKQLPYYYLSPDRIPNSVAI

[2] = system: atherosclerotic lesions in cholesterol-fed New Zealand White rabbits; test: Atherosclerosis in cholesterol-fed rabbits, 12-week study (aortic lesion coverage, aortic cholesterol content); format: in vivo, rabbit; conditions: 350 mg/kg/day in food, 12 weeks
Excerpt: As further evidence of 15-LO inhibitors being effective to prevent and treat inflammation and atherosclerosis in animals, one representative compound has been extensively evaluated in cholesterol-fed rabbits over a 12-week period.
Specific pathogen-free New Zealand White rabbits (≈2.5 kg) were obtained from Myrtle's Rabbitry (Thompson Station, Tenn.). The animals were fed a standard laboratory diet (Ralston Purina, St. Louis, Mo.) and were allowed to become acclimatized for 7 days before initiation of the study, at which time two groups of rabbits (n=10 each) were begun on a diet enriched with cholesterol (0.25% wt/wt), peanut oil (3% wt/wt), and coconut oil (3% wt/wt), with a small amount of applesauce mixed into the food to enhance palatability. This diet was designed to produce a modest hypercholesterolemic response. The control group received no additional treatment. […] Rabbits were permitted access to 40 g of food at ≈12 hour intervals via automated feeders, and diet intake was monitored every day such that the animals received 175 mg/kg/bid. Water was available ad libitum. Body weights were measured at regular intervals throughout the 12-week study. Blood samples were obtained at the indicated intervals for determination of hematocrit and plasma lipid concentrations.
Rabbits were euthanized by an overdose of sodium pentobarbital (150 mg/kg^-1) and exsanguinated via the abdominal aorta. Aortas were removed from the valve to the ileal bifurcation, opened to expose the intima, and photographed with a Polaroid camera. By use of these photographs, the areas of grossly discernible atherosclerosis were manually integrated on a digitizing pad and calculated with SigmaScan (Jandel Scientific). Aortas were visually subdivided into three areas: arch (aortic valve to first intercostal), thoracic aorta (first intercostal to diaphragm area), and abdominal aorta (diaphragm to ileal bifurcation). In addition to extracting aortas, body tissues were surveyed for indications of adverse reactions.
Weighed segments of each aortic region (arch, thoracic, and abdominal) were extracted. Esterified and unesterified cholesterol content of aortic tissue were determined by gas chromatography using 5-α-cholestane as an internal standard.

[3] = Table 1, HPLC method, read-out: 15-LO IC50
[4] = Table 1, read-out: 5-LO (concentration to inhibit 50% of 5-LO activity)
[5] = Table 2, benzimidazoles, read-out: 5-LO IC50
[6] = Table 2, benzimidazoles, read-out: 15-LO IC50
[7] = Table 4, indoles, read-out: 5-LO IC50
[8] = Table 4, indoles, read-out: 15-LO IC50
[9] = read-out: 5-LO inhibitory activity IC50

Compound: COc1ccc2[nH]c3c(c2c1)CSc1ccccc1-3
IC50 (5-LO enzyme; [4]): > 10 µM
IC50 [1, 3]: 600 nM

Compound: COc1ccc2[nH]c3c4ccccc4ncc3c2c1
IC50 [1, 3]: > 25000 nM

Compound: COc1ccc2[nH]c3c(c2c1)CCc1ccccc1-3
IC50 [1, 3]: > 25000 nM

Compound: O=C(Nc1cccc(Cl)c1)Sc1c[nH]c2ccccc12
IC50 (5-LO enzyme; [7]): > 10 µM
IC50 [1, 8]: 4000 nM

Compound: Clc1ccc2c(c1)Nc1c(ccc3ccccc13)S2
IC50 (5-LO enzyme; Table 5, read-out: 5-LO IC50): > 30 µM
IC50 ([1]; Table 5, read-out: 15-LO IC50): 2000 nM

Compound: c1ccc2c(c1)ccc1c3ccccc3[nH]c21
IC50 (5-LO enzyme; Table 5, read-out: 5-LO IC50): > 10 µM
IC50 [1]: 1500 nM

Compound: CCCCCC#CCC#CCC#CCC#CCCCC(=O)O [CH3 (CH2)3 (CH2 --C≡C--)4 (CH2)3 --COOH]
IC50 (5-LO enzyme; Table 5, read-out: 5-LO IC50): > 10 µM
IC50 ([1]; Table 5, read-out: 15-LO IC50): 750 nM

Compound: c1ccc2c(c1)SCc1c-2[nH]c2ccccc12 [Compound A, 6,11-dihydro[1]benzothiopyrano[4,3-b]-indole]
IC50 (5-LO enzyme; [4]): > 100 µM
IC50 (5-LO enzyme; [9]): > 100 µM
cholesterol esters, abdominal region ([2]; abdominal (control about 0.6)): no detectable cholesterol esters
lesion coverage, abdominal region ([2]; abdominal aorta (control 5%)): about 1%
unesterified cholesterol, thoracic and abdominal regions ([2]; about the same as control): 0.7-0.8 mg/g tissue wet weight
lesion coverage of intima, arch area ([2]; aortic arch (control about 15%)): no lesion coverage
unesterified cholesterol, arch region ([2]; arch (control about 1.4)): about 0.8 mg/g
cholesterol esters, arch region ([2]; arch (control about 2)): no detectable cholesterol esters
cholesterol esters, thoracic region ([2]; thoracic (control none)): no detectable cholesterol esters
lesions, thoracic region ([2]; thoracic aorta): No detectable lesions

Compound: Cc1ccc2[s+]cc3c4ccccc4[nH]c3c2c1 [drawing 19 (R2=H, R3=H, R4=CH3, R5=H, R8=H)]
IC50 [1, 3]: 1900 nM

Compound: c1ccc2c(c1)[nH]c1c3ccccc3[s+]cc21 [drawing 19 (R2=H, R3=H, R4=H, R5=H, R8=H)]
IC50 [1, 3]: 1000 to 4000 nM

Compound: O=[N+]([O-])c1ccc2[s+]cc3c4ccccc4[nH]c3c2c1 [drawing 19 (R2=H, R3=H, R4=NO2, R5=H, R8=H)]
IC50 (5-LO enzyme; [4]): > 10 µM
IC50 [1, 3]: 480 nM

Compound: c1ccc2c(c1)c[s+]c1c3ccccc3[nH]c21 [drawing 20 (R2=H, R3=H, R4=H, R5=H, R8=H)]
IC50 (5-LO enzyme; [4]): 22 µM
IC50 [1, 3]: 3800 nM

Further lines, results first:

IC50 [1, 3]: 26000 nM
Compound: COc1ccc2c(c1)[nH]c1c3ccccc3[s+]cc21

IC50 (5-LO enzyme; [4]): > 9.6 µM
IC50 [1, 3]: 700 nM
Compound: COc1ccc2[nH]c3c4ccccc4[s+]cc3c2c1

IC50 (5-LO enzyme; [4]): > 32 µM
IC50 [1, 3]: 500 to 2000 nM
Compound: c1ccc2c(c1)[nH]c1c3cc4c(cc3[s+]cc21)CCCC4

IC50 (5-LO enzyme; [4]): > 50 µM
IC50 [1, 3]: 4500 nM
Compound: COc1ccc2c3c([nH]c2c1)-c1ccccc1SC3

IC50 (5-LO enzyme; [4]): > 50 µM
IC50 [1, 3]: 4000 nM
Compound: COc1ccc2[nH]c3c(c2c1)COc1ccccc1-3

IC50 (5-LO enzyme; [5]): > 10 µM
IC50 [1, 6]: 700 nM
Compound: Clc1ccc2[nH]c(-c3ccccc3)nc2c1

IC50 (5-LO enzyme; [7]): > 10 µM
IC50 [1, 8]: 1500 nM
Compound: O=C(Cc1c[nH]c2ccccc12)Nc1ccccc1

IC50 (5-LO enzyme; [5]): > 10 µM
IC50 (5-LO enzyme; [9]): > 10 µM
15-LO to 5-LO ratio of activities ([1]; 15-LO versus 5-LO): greater than 10
IC50 [1, 6]: 650 nM
Compound: Clc1ccc(-c2nc3ccc(Cl)cc3[nH]2)cc1 [2-(4-chlorophenyl)-5-chlorobenzimidazole]

IC50 [1, 3]: 12000 nM
Compound: Clc1ccc2[s+]cc3c4ccccc4[nH]c3c2c1 [drawing 19 (R2=H, R3=H, R4=Cl, R5=H, R8=H)]

IC50 [1, 3]: 1000 to 4000 nM
Compound: Cc1ccc2c(c1)[s+]cc1c3ccccc3[nH]c21 [drawing 19 (R2=H, R3=H, R4=H, R5=CH3, R8=H)]

IC50 [1, 3]: > 25000 nM
Compound: Cc1[s+]c2ccccc2c2[nH]c3ccccc3c12 [drawing 19 (R2=H, R3=H, R4=H, R5=H, R8=CH3)]

IC50 (5-LO enzyme; [5]): > 10 µM
IC50 [1, 6]: 1500 nM
Compound: c1csc(-c2csc(-c3nc4ccccc4[nH]3)n2)c1 [drawing 26 (R2=H, R3=H, R10=H, R11=drawing 27)]

IC50 (5-LO enzyme; Table 3, styrenes, read-out: 5-LO IC50): > 10 µM
IC50 ([1]; Table 3, styrenes, read-out: 15-LO IC50): 1600 nM
Compound: COc1ccc(/C=C/C(=O)c2cccs2)cc1 [drawing 31 (R2=H, R3=4-OCH3, Het=drawing 32)]
